Laboratory results taken from patent US20240150338A1, “COMPOUNDS AND USE THEREOF FOR TREATMENT OF NEURODEGENERATIVE, DEGENERATIVE AND METABOLIC DISORDERS” (University of Florida Research Foundation, Incorporated, priority 2021, published 2024).

How the values were obtained:
[1] = Microsomal stability assay; assay type: in vitro ADME; conditions: 1 mg/ml human hepatic microsomes, 37° C., half-life by LC-MS/MS; yes = stability ≥15 minutes
Experimental: The metabolic stability of some test compounds was determined in hepatic human and mouse microsomes. The compound was incubated with 1 mg/ml human or mouse hepatic microsomes at 37° C. with continuous shaking. Aliquots were removed at various time points between 5 minutes and 2 hours and acetonitrile was added to quench the reactions and precipitate the proteins. Samples were then centrifuged through 0.45 μm filter plates and half-lives were determined by LC-MS/MS.

[2] = system: PK1 neuroblastoma cells exposed to TPrP; assay: cells; assay type: cell-based; conditions: Neuroblastoma cell, 96 h, read-out: TPrP EC50

SMILES | Stabilty in human microsomes ≥ 15 minutes [1] | EC50 [2]
Cc1cc(-c2csc(Nc3ccc(S(C)(=O)=O)cc3)n2)ccn1 [SR-33793, 4-(2-Methylpyridin-4-yl)-N-(4-(methylsulfonyl)phenyl)thiazol-2-amine] | yes | 20 nM
CNS(=O)(=O)c1ccc(-c2csc(Nc3ccc(S(C)(=O)=O)c(Cl)c3)n2)cc1 [SR-35736, 4-(2-((3-Chloro-4-(methylsulfonyl)phenyl)amino)thiazol-4-yl)-N-methylbenzenesulfonamide] | yes | 5 nM
O=S(=O)(O)c1ccc(Nc2nc(-c3ccncc3)c(CO)s2)cc1 [SR-33878, 4-((5-(Hydroxymethyl)-4-(pyridin-4-yl)thiazol-2-yl)amino)benzenesulfonic acid] | yes | 300 nM
Cc1ccc(-c2csc(Nc3ccc(S(C)(=O)=O)cc3)n2)cc1 [SR-35731, N-(4-(methylsulfonyl)phenyl)-4-(p-tolyl)thiazol-2-amine] | yes | > 500 nM
CS(=O)(=O)c1ccc(-c2csc(Nc3ccc(S(N)(=O)=O)cc3)n2)cc1 [SR-35729, 4-((4-(4-(Methylsulfonyl)phenyl)thiazol-2-yl)amino)benzenesulfonamide] | yes | 1.6 nM
NS(=O)(=O)c1ccc(Nc2nc(-c3ccnc(Cl)c3)c(CO)s2)cc1 [SR-33525, 4-((4-(2-Chloropyridin-4-yl)-5-(hydroxymethyl)thiazol-2-yl)amino)benzenesulfonamide] | yes | 65 nM
COc1cc(-c2csc(Nc3ccc(S(C)(=O)=O)c(Cl)c3)n2)ccn1 [SR-34993, N-(3-Chloro-4-(methylsulfonyl)phenyl)-4-(2-methoxypyridin-4-yl)thiazol-2-amine] | yes | 125 nM
O=S(=O)(O)c1ccc(Nc2nc(-c3ccncc3)cs2)cc1 [SR-33785, 4-((4-(Pyridin-4-yl)thiazol-2-yl)amino)benzenesulfonic acid] | yes | 40 nM
CNS(=O)(=O)c1ccc(-c2csc(Nc3ccc(S(C)(=O)=O)c(F)c3)n2)cc1 [SR-35735, 4-(2-((3-Fluoro-4-(methylsulfonyl)phenyl)amino)thiazol-4-yl)-N-methylbenzenesulfonamide] | yes | 6 nM
Cc1cc(-c2nc(Nc3ccc(S(=O)(=O)O)cc3)sc2CO)ccn1 [SR-33526, 4-((5-(Hydroxymethyl)-4-(2-methylpyridin-4-yl)thiazol-2-yl)amino)benzenesulfonic acid] | yes | 150 nM
Cc1cc(-c2csc(Nc3ccc(S(C)(=O)=O)c(F)c3)n2)cc(C)n1 [SR-34974, 4-(2,6-Dimethylpyridin-4-yl)-N-(3-fluoro-4-(methylsulfonyl)phenyl)thiazol-2-amine] | yes | 100 nM
